Assay results as given in article PMC10028264, “Synergistic antifungal interaction of N-(butylcarbamothioyl) benzamide and amphotericin B against Cryptococcus neoformans” (Frontiers in Microbiology, 2023).
Converted amounts (≈) assume the structure as drawn. Read-outs that look alike come from different tables or passages of the source.

Columns and labels:
Type in all cases: cell-based
[1] = test system: Cryptococcus neoformans biofilm; test: Antifungal activity on sessile cells, 72-h biofilm, MTT reduction (SMIC80)
Description: The capacity of C. neoformans strains to form biofilm was evaluated on flat-bottomed 96-well polystyrene plates (Techno Plastic Products, Switzerland), as described by [Martinez and Casadevall (2006)]. Thus, the biofilms were formed in SD broth statically at 37°C for 24, 48, 72, 96, and 120 h, with an inoculum of 1.0 × 10^7 CFU/mL. After each incubation period, the viability of sessile cells was evaluated using the 3-(4,5-dimethylthiazol-2-yl)-2,5-diphenyltetrazolium bromide (MTT, Merck, Brazil) reduction assay according to the manufacturer’s recommendations. The assays were carried out in quintuplicate and performed on two separate occasions.
To evaluate the antifungal activity of the compounds on sessile cells, biofilms were formed for 72 h, washed with saline, and 200-μL aliquots of RPMI-MOPS containing different concentrations of BTU-01 (31.25–1000.0 μg/mL) and/or AmB (0.007–16.0 μg/mL) were added for determining the SMIC (Sessile Minimal Inhibitory Concentration). Untreated and treated biofilms were incubated at 37°C for further 24 h, and then washed with saline. The biofilm viability was analyzed by the MTT reduction assay as described above. The SMICs of BTU-01 and AmB alone and combined were determined by the lowest concentration capable of inhibiting 80% (SCIM80) of the viability of sessile cells compared to the untreated controls. The checkerboard assays were performed to analyze the effect of the combination with BTU-01 and AmB on 72-h biofilms. The results of the combination were interpreted using the FICI as described previously.

[2] = test system: Cryptococcus neoformans biofilm; test: Checkerboard assay on 72-h biofilms; conditions: 72-h biofilm
Description: The antifungal effect of BTU-01 combined with AmB was evaluated using the checkerboard broth microdilution assay, according to [Scott et al. (1995)]. […] The Fractional Inhibitory Concentration (FIC) of each compound was determined by the ratio of the MIC obtained when the compounds were tested in combination and the MIC of the compounds tested individually. […] Untreated and treated biofilms were incubated at 37°C for further 24 h, and then washed with saline. The biofilm viability was analyzed by the MTT reduction assay as described above. […] The checkerboard assays were performed to analyze the effect of the combination with BTU-01 and AmB on 72-h biofilms. The results of the combination were interpreted using the FICI as described previously.

Cryptococcus neoformans [3] = test: Fungal capsule and cell size (Chinese ink, light microscopy); conditions: compared to untreated cells; ATCC 34872 and 1172; 48 h; p < 0.05
Description: For all assays, fungal cells were incubated in RPMI-MOPS (except when specified) supplemented with BTU-01 and AmB alone at MIC and MFC values or combined at the synergistic MIC values. Untreated fungal cells were considered as control.
Cryptococcus neoformans was cultivated in a minimal capsular induction medium (15 mM glucose, 10 mM MgSO4, 29.4 mM KH2PO4, 13 mM glycine and 3 μM thiamine-HCl, pH 5.5) at 37°C for 7 days ([Frases et al., 2009]). Afterward, a standard fungal suspension was prepared as described above, and the cells (1.0 × 10^7 CFU/mL) were treated with the compounds at 37°C for 48 h. Cells were collected by centrifugation (10,000 × g, 1 min), suspended in an equal volume of Chinese ink on glass slides, spread the smear evenly with coverslips, and observed with a Zeiss Axio Imager 2 microscope (Zeiss, Germany). The capsule size of 100 randomly chosen cells was measured by using the software ImageJ 1.49v.^1 The capsule thickness was determined according to [Spadari et al. (2019)], which consisted of the difference between the diameter of the cell, including the capsule, with the diameter of the body cell within the cell wall.

Cryptococcus neoformans [4] = test: Broth microdilution MIC and MFC on planktonic cells
Description: Cryptococcus neoformans ATCC 34872 (serotype A), C. neoformans ATCC 66031 (serotype D), and four C. neoformans human isolates (Table 1) belonging to the microbial collection of the Laboratório de Biologia Molecular de Microrganismos of Universidade Estadual de Londrina (UEL), Londrina, Paraná, Brazil, were included in the present study. Yeasts were cultivated in Sabouraud dextrose (SD) agar at 37°C for 48 h and stored at 4°C. For the experiments, five colonies were transferred to SD broth and incubated under the same conditions. Cells were then centrifuged (10,000 × g for 1 min) and resuspended in 0.85% NaCl solution (saline) to achieve turbidity equivalent to 0.5 McFarland standard using the DensiCHEK™ PLUS colorimeter (bioMérieux), which corresponds to approximately 1.0–2.0 × 10^6 colony forming units (CFUs)/mL (standard fungal suspension). The fungal suspension was diluted in a culture medium to achieve the inoculum used in each assay. The study protocol was in accordance with the ethics committee of the UEL. The patients signed a written informed consent form agreeing with this publication (CAAE number 57452322.2.0000.5231).
Minimal inhibitory concentrations (MIC) of BTU-01 and AmB were determined by the broth microdilution method ([CLSI, 2017]). An inoculum (100 μL) of yeast cells (0.5–2.5 × 10^3 CFU/mL) was added into the wells of a U-bottom 96-well microtiter plate (Techno Plastic Products, Switzerland) containing twofold serial dilutions of BTU-01 (1.95–1000.0 μg/mL) and AmB (0.031–16.0 μg/mL) in RPMI-MOPS. Wells containing medium or medium plus DMSO 1% with or without the fungal cells were used as growth and sterility controls, respectively. Candida parapsilosis ATCC 22019 was used as quality control. […] The results of AmB were interpreted using the epidemiological cut-off values proposed in [Espinel-Ingroff et al. (2012)]. To determine the minimal fungicidal concentration (MFC), 10 μL from the wells without visible growth was transferred onto SD agar ([Espinel-Ingroff et al., 2002]), and incubated at 37°C for 48 h. The MFC was determined as the lowest concentration capable of reducing the CFU counts to zero.

[5] = C. neoformans 1172, treated 24 h
[6] = C. neoformans ATCC 34872, treated 24 h
[7] = Cryptococcus neoformans, 72 h, C. neoformans 1172; planktonic cells; 72 h; read-out: MIC
[8] = Cryptococcus neoformans, 72 h, C. neoformans 90889; planktonic cells; 72 h; read-out: MIC
[9] = Cryptococcus neoformans, 72 h, C. neoformans CN01; planktonic cells; 72 h; read-out: MIC
[10] = Cryptococcus neoformans, 72 h, C. neoformans CN12; planktonic cells; 72 h; read-out: MIC
[11] = Cryptococcus neoformans, ATCC34872, 72 h, C. neoformans ATCC 34872; planktonic cells; 72 h; read-out: MIC
[12] = Cryptococcus neoformans, ATCC66031, 72 h, C. neoformans ATCC 66031; planktonic cells; 72 h; read-out: MIC

| SMILES | SMIC80 [1, 5] | SMIC80 [1, 6] | reduction in SMIC80 value in combination ([2]; 1172 strain) | reduction in SMIC80 value in combination ([2]; ATCC 34872) | capsule size (Cryptococcus neoformans [3]) | cell size (Cryptococcus neoformans [3]) | MIC (Cryptococcus neoformans [4]; [7]) | MIC (Cryptococcus neoformans [4]; [8]) | MIC (Cryptococcus neoformans [4]; [9]) | MIC (Cryptococcus neoformans [4]; [10]) | MIC (Cryptococcus neoformans [4]; [11]) | MIC (Cryptococcus neoformans [4]; [12]) | other results |
| --- | --- | --- | --- | --- | --- | --- | --- | --- | --- | --- | --- | --- | --- |
| C[C@@H]1[C@H](O)[C@@H](C)/C=C/C=C/C=C/C=C/C=C/C=C/C=C/[C@H](O[C@@H]2O[C@H](C)[C@@H](O)[C@H](N)[C@@H]2O)C[C@@H]2O[C@](O)(C[C@@H](O)C[C@@H](O)[C@H](O)CC[C@@H](O)C[C@@H](O)CC(=O)O[C@H]1C)C[C@H](O)[C@H]2C(=O)O [Amphotericin B, amphotericin B] | 1.0 µg/mL | 1.0 µg/mL | 8 fold | 8 fold | significant reduction | significant reduction | 0.25 µg/mL (≈ 0.271 µM) | 0.25 µg/mL (≈ 0.271 µM) | 0.125 µg/mL (≈ 0.135 µM) | 0.125 µg/mL (≈ 0.135 µM) | 0.25 µg/mL (≈ 0.271 µM) | 0.125 µg/mL (≈ 0.135 µM) | MIC (Cryptococcus neoformans [4]; C. neoformans 1172; planktonic cells; 72 h; listed as AmB): 0.25 µg/mL (≈ 0.271 µM); MFC (Cryptococcus neoformans [4]; C. neoformans 90889; planktonic cells; 72 h): 0.5 µg/mL (≈ 0.541 µM); MIC (Cryptococcus neoformans [4]; C. neoformans ATCC 34872; planktonic cells; 72 h; listed as AmB): 0.25 µg/mL (≈ 0.271 µM); MFC (Cryptococcus neoformans [4]; C. neoformans CN01; planktonic cells; 72 h): 0.5 µg/mL (≈ 0.541 µM); MFC (Cryptococcus neoformans [4]; C. neoformans CN12; planktonic cells; 72 h): 0.5 µg/mL (≈ 0.541 µM); MFC (Cryptococcus neoformans [4]; Cryptococcus neoformans, ATCC34872; C. neoformans ATCC 34872; planktonic cells; 72 h; read-out: MFC): 0.5 µg/mL (≈ 0.541 µM); MFC (Cryptococcus neoformans [4]; Cryptococcus neoformans, ATCC66031; C. neoformans ATCC 66031; planktonic cells; 72 h; read-out: MFC): 0.5 µg/mL (≈ 0.541 µM); MFC (Cryptococcus neoformans [4]; Cryptococcus neoformans; C. neoformans 1172; planktonic cells; 72 h; read-out: MFC): 0.5 µg/mL (≈ 0.541 µM); susceptibility of the strains to the antifungal (Cryptococcus neoformans [4]; epidemiological cut-off values of Espinel-Ingroff et al., 2012; all strains): susceptible; MFC, range over all C. neoformans strains (Cryptococcus neoformans [4]; planktonic cells; all six strains): 0.5 µg/mL (≈ 0.541 µM) |
| CCCCNC(=S)NC(=O)c1ccccc1 [BTU-01, N-(butylcarbamothioyl) benzamide] | > 1000.0 µg/mL | 125.0 µg/mL | 128 fold | 16 fold | significant reduction | significant reduction | 62.5 µg/mL (≈ 264 µM) | 62.5 µg/mL (≈ 264 µM) | 62.5 µg/mL (≈ 264 µM) | 31.2 µg/mL (≈ 132 µM) | 62.5 µg/mL (≈ 264 µM) | 62.5 µg/mL (≈ 264 µM) | MFC (Cryptococcus neoformans [4]; Cryptococcus neoformans, 72 h, C. neoformans 1172; planktonic cells; 72 h; read-out: MFC): 125 µg/mL (≈ 529 µM); MFC (Cryptococcus neoformans [4]; Cryptococcus neoformans, 72 h, C. neoformans 90889; planktonic cells; 72 h; read-out: MFC): 250 µg/mL (≈ 1060 µM); MFC (Cryptococcus neoformans [4]; Cryptococcus neoformans, 72 h, C. neoformans CN01; planktonic cells; 72 h; read-out: MFC): 500 µg/mL (≈ 2120 µM); MFC (Cryptococcus neoformans [4]; Cryptococcus neoformans, 72 h, C. neoformans CN12; planktonic cells; 72 h; read-out: MFC): > 1000 µg/mL; MFC (Cryptococcus neoformans [4]; Cryptococcus neoformans, ATCC34872, 72 h, C. neoformans ATCC 34872; planktonic cells; 72 h; read-out: MFC): 125 µg/mL (≈ 529 µM); MFC (Cryptococcus neoformans [4]; Cryptococcus neoformans, ATCC66031, 72 h, C. neoformans ATCC 66031; planktonic cells; 72 h; read-out: MFC): 125 µg/mL (≈ 529 µM); nature of the antifungal effect (Cryptococcus neoformans [4]; from MIC and MFC; all strains): fungistatic effect |
